Reference: patent publication US20030077298A1, “Activators and ligands of PPAR-beta/delta for the treatment of skin conditions” (The Regents of the University of California, a California …, priority 2001, published 2003)
Where two headings read alike, the source gives them in different places.

Experiments:
[1] = test system: hyperplastic epidermis of hairless mice; test: Experimentally induced epidermal hyperplasia: filaggrin/loricrin and PCNA staining; format: in vivo, mouse; settings: 4 mM in acetone topically for three days after induction of hyperplasia
Experimental: The skin of 6-8 week old hairless mice (Simonsen Laboratories, Gilroy, Calif.) was treated twice a day for 3 days with acetone soaked cotton balls until the transepidermal water loss reached 6-8 mg/cm^2/h. […] At the completion of the experimental treatments, the animals were sacrificed and skin samples were taken and fixed with 4% formaldehyde in phosphate-buffered saline (PBS) and embedded in paraffin. Sections (6 μm) were collected on microscope slides and used for immunohistochemistry. Photographs were taken with a Zeiss microscope and digital images were captured and assembled by appropriate software. Fillagrin and loricrin protein expression were detected by immunohistochemistry using antibodies purchased from BabCo (Richmond, Calif.). Proliferating keratinocytes were quantified in sections by staining with biotinylated anti-proliferating cell nuclear antigen (PCNA) antibody (CalTag Laboratories, Burlingame, Calif.).

[2] = target: T1, PPAR-alpha (Homo sapiens, UniProt Q07869); test: PPAR subtype activation (statement in description); settings: "it has now been discovered"; no method given
T1 sequence (Q07869 1-468): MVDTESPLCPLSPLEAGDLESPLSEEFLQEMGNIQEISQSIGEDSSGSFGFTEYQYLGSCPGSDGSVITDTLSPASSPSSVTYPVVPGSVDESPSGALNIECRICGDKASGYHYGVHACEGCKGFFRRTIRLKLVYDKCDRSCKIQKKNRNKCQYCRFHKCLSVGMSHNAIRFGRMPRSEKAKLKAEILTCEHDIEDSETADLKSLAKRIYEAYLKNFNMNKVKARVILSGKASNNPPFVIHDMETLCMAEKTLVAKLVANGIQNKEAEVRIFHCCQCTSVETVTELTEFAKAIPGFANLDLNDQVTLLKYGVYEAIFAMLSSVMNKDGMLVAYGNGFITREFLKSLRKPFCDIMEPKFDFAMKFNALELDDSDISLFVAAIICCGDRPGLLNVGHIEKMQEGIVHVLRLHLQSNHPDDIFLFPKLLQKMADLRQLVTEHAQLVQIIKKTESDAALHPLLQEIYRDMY

[3] = test system: cultured human keratinocytes; test: Keratinocyte differentiation in vitro, involucrin protein by Western blot; format: cell-based; settings: 8 μM
Experimental: (§1) Second-passage keratinocytes isolated from newborn foreskins were cultured in serum-free keratinocyte growth medium (KGM; Clonetics, San Diego, Calif., USA). […] Poly-A mRNA was isolated and transglutaminase I, involucrin and PPAR-beta/delta mRNA levels were measured by Northern blot analysis (FIG. 1).
Total cellular protein was isolated from cultured keratinocytes and involucrin protein levels were assessed by Western blot analysis. The cells were homogenized by sonication, their protein content was determined, and gels were loaded with equal amounts per sample and lane. Western Immunoblotting was performed using 7.5% SDS-PAGE, as described previously (Laemmli, 1970). Following transfer of protein to PVDF membranes, blots were incubated overnight with primary antibody at 4° C. Secondary antibody (peroxidase conjugated anti mouse; Amersham PharmaciaBiotech Inc., Piscataway, N.J.) was applied and blots were incubated at room temperature for 2 hours. Final detection was performed by chemiluminescence (ECL kit; Amersham). Involucrin protein was detected with a monoclonal mouse anti-human involucrin antibody.

[4] = test system: cultured human keratinocytes; test: Keratinocyte differentiation in vitro, mRNA levels by Northern blot; format: cell-based
Experimental: Therefore, to determine if GW1514 could stimulate keratinocyte differentiation, in vitro changes in the levels involucrin and transglutaminase I mRNA, and involucrin protein expression were determined when cells were cultured in the presence of GW1514. In addition, levels of PPAR-betaldelta mRNA were compared in cells treated with GW1514 versus untreated controls.
as §1
(§2) PolyA RNA was purified using oligo(dT) cellulose (Amersham Pharmacia). RNA was electrophoresed through 1% agarose gels containing 2.2 M formaldehyde, and RNA integrity was visualized by ethidium bromide staining. The RNA was then transferred to a nylon membrane and blots were hybridized overnight at 65° C. with the appropriate ^32P-labeled cDNA probes. Probes were ^32P-labeled by random priming. Washes were performed in 0.1% SSC and 0.1 SDS for 20 minutes at room temperature and at 65° C., respectively. Autoradiography was performed at −70° C. Blots were probed with GAPDH to control for normal loading. Bands of the correct size were quantified by densitometry using QuantityOne software (Bio-Rad Laboratories Inc., Hercules, Calif., USA).

[5] = test system: epidermal permeability barrier of hairless mice; test: Permeability barrier recovery (TEWL) after barrier disruption; format: in vivo, mouse; settings: for percent barrier recovery: pretreated 4 mM twice daily for three days
Experimental: Permeability of the epidermal barrier was then experimentally disrupted by the repeated application of cellophane tape, solvent extraction (repeated topical acetone), or by detergent treatment (repeated topical sodium dodecyl sulfate) until the transepidermal water loss (TEWL) reached 6-8 mg/cm^2/h. Recovery of barrier function was determined by measurement of transepidermal water loss (TEWL) with an electrolytic water analyzer (MEECO®, Warrington, Pa.) at 3 and 6 hours after barrier disruption.
Barrier recovery is reported as percent barrier recovery from the initial induced defect.

[6] = test system: ears of CD-1 mice; test: TPA-induced irritant contact dermatitis, ear thickness; format: in vivo, mouse; settings: for effect on TPA induced increase in ear thickness: GW1514 4 mM in acetone, topical, 45 minutes and 4 hours after TPA, FIG. 9
Experimental: TPA was applied to the inner and outer surface of the left ears of male mice. The right ears were treated with vehicle alone (acetone). […] Ear thickness was measured with a digital caliper (Mitutoyo Corp., Tokyo, Japan).

[7] = test system: normal epidermis of hairless mice; test: Topical treatment of normal epidermis: filaggrin/loricrin immunohistochemistry and PCNA staining; format: in vivo, mouse
Excerpt: At the conclusion of the experiment the animals were sacrificed. Mouse skin samples were fixed with 4% formaldehyde in phosphate-buffered saline (PBS) and embedded in paraffin. Sections (6 μm) were collected on microscope slides and used for immunohistochemistry. Photographs were taken with a Zeiss microscope and digital images were captured and assembled by appropriate software. Fillagrin and loricrin protein expression were detected by immunohistochemistry using antibodies purchased from BabCo (Richmond, Calif.). Proliferating keratinocytes were quantified in sections by staining with biotinylated anti-proliferating cell nuclear antigen (PCNA) antibody (CalTag Laboratories, Burlingame, Calif.).

[8] = test system: epidermis of PPARα−/− and PPARα+/+ mice; test: Topical treatment of PPAR-alpha knockout and wild type mice: filaggrin/loricrin immunohistochemistry; format: in vivo, mouse; settings: 4 mM topical twice a day for 6 days
Experimental: The epidermis of PPARα knockout (PPARα−/−) mice, as well as the epidermis of wild type(PPARα+/+) mice was treated with topical applications of GW1514. Expression of the in vivo differentiation markers loricrin and filaggrin was measured by immunohistochemical staining following treatment.
PPAR-alpha−/−mice in a mixed C57BL/6 and Sv129 background were compared with age matched C57BL/6 and Sv129 wild type controls. […] At the conclusion of the experiment, animals were sacrificed. Skin samples were taken and fixed with 4% formaldehyde in phosphate-buffered saline (PBS) and embedded in paraffin. Sections (6 μm) were collected on microscope slides and used for immunohistochemistry. Photographs were taken with a Zeiss microscope and digital images were captured and assembled by appropriate software. Fillagrin and loricrin protein expression were detected by immunohistochemistry using antibodies purchased from BabCo (Richmond, Calif.).

[9] = target: T1, PPAR-alpha; settings: known cross-reactive PPAR agonists; cited from earlier work
[10] = test system: cultured human keratinocytes; test: PPAR-beta/delta mRNA in keratinocytes treated with inflammatory stimuli (Northern blot); format: cell-based; settings: LPS; IL1-beta 50 ng/ml; TNF-alpha 100 ng/ml; UV-B 30 mJ/cm^2
Experimental: Second-passage keratinocytes isolated from newborn foreskins were cultured in serum-free keratinocyte growth medium (KGM; Clonetics, San Diego, Calif., USA). […] Control keratinocytes were treated with vehicle (0.05%) ethanol, or sham irradiated. UV exposure was performed in phosphate buffered saline which was replaced by serum free KGM after irradiation. For cytokine treatment, 0.1% bovine serum albumin was added to the medium.
as §2, with “Quantityone” for “QuantityOne”, “Laboratories,” for “Laboratories”

[11] = 8 μM vs vehicle (0.05% ethanol), Northern blot
[12] = 4 mM in acetone, topical, twice a day for 6 days, vs vehicle

Cc1cc(SCc2oc(-c3ccc(C(F)(F)F)cc3)nc2C)ccc1OCC(=O)O [GW1514, (2-methyl-4-(((4-methyl-2-(4-trifluoromethylphenyl)-1,3-oxazol-5-yl)methyl)sulfanyl)phenoxy)acetic acid]
expression of differentiation marker filaggrin [1]: increase | expression of differentiation marker loricrin [1]: increase | number of proliferating nuclei as measured by PCNA staining [1]: did not produce an increase | activation of PPAR-alpha [2]: not also activators of PPAR-alpha | increase in involucrin protein expression [3]: 5 fold | PPAR-beta/delta mRNA levels [4, 11]: increased levels | involucrin mRNA levels [4, 11]: increased levels | transglutaminase I mRNA levels [4, 11]: increased levels | induction of differentiation markers compared with high calcium concentrations in culture medium ([4]; 8 μM, FIG. 1): more pronounced | recovery of permeability barrier function ([5]; regardless of the method of barrier perturbation (tape, acetone, detergent)): accelerated recovery | percent barrier recovery ([5]; three hour post tape-strip): ~50% | percent barrier recovery ([5]; three hours after repeated topical acetone): about 30% | effect on TPA induced increase in ear thickness [6]: reduced the magnitude | filaggrin immunohistochemical staining [7, 12]: increased levels of immunohistochemical staining | loricrin immunohistochemical staining [7, 12]: increased levels of immunohistochemical staining | cell proliferation (PCNA) ([7]; after six days treatment): at normal levels | expression of in vivo differentiation markers ([7]; after three days of treatment): increased expression | pool of proliferating cells (PCNA) ([7]; three days after treatment): transiently increased | filaggrin immunohistochemical staining ([8]; PPAR-alpha knockout (−/−) mice): increased immunohistochemical staining | loricrin immunohistochemical staining ([8]; PPAR-alpha knockout (−/−) mice): increased immunohistochemical staining | filaggrin immunohistochemical staining ([8]; wild type (+/+) mice): increased immunohistochemical staining | loricrin immunohistochemical staining ([8]; wild type (+/+) mice): increased immunohistochemical staining

CCCCCCCCCCCCCC(=O)O[C@@H]1[C@@H](C)[C@@]2(O)[C@@H](C=C(CO)C[C@]3(O)C(=O)C(C)=C[C@@H]23)[C@@H]2C(C)(C)[C@]12OC(C)=O [TPA, 12-O-tetradecanoylphorbol-13-acetate]
increase in ear thickness following TPA treatment ([6]; 10 μl of 0.03% TPA in acetone, single topical application): approximately 2 fold | increase in ear weight following TPA treatment ([6]; 10 μl of 0.03% TPA in acetone, single topical application, not shown): approximately 2 fold

Cc1cccc(Nc2cc(Cl)nc(SCC(=O)O)n2)c1C [WY 14643]
activation of PPAR-alpha [9]: activates

C[C@H]1C[C@H]2[C@@H]3CCC4=CC(=O)C=C[C@]4(C)[C@@]3(F)[C@@H](O)C[C@]2(C)[C@@]1(O)C(=O)CCl [clobetasol]
effect on TPA induced increase in ear thickness [6]: anti-inflammatory effect

IL1-β: cytokine used as inflammatory stimulus on cultured keratinocytes
PPAR-beta/delta mRNA levels relative to untreated control [10]: nearly twice

lipopolysaccharide [reference compound]
PPAR-beta/delta mRNA levels relative to untreated control [10]: nearly twice
